Assay results taken from the supplement of paper PMC10307832.

What was measured:
Test in all cases: relative viability (nuclei count vs DMSO), 5 days (fraction); higher = more cells survive
[1] = compound: COC1=C(C=C(C=C1)C2=CC3=NC=CN3C(=N2)NC4=C(C=CC=N4)C(=O)N)OC [BAY61-3606] + CC(C)C[C@H](NC(=O)[C@H](Cc1ccccc1)NC(=O)c1cnccn1)B(O)O [Bortezomib] (partner 0.002 µM)
Summary of the method: (§1)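 Dosing by pin tool came one day after lung cancer cell lines were seeded in 1536-well plates, using either one drug or a fixed anchor-drug dose plus five library-drug doses (not always all listed) in √10 steps. After 5 days, nuclei were counted on 4× images. Relative viability is treated-well nuclei count divided by vehicle-well nuclei count, and values are medians of duplicate plates.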

[2] = compound: COC1=C(C=C(C=C1)C2=CC3=NC=CN3C(=N2)NC4=C(C=CC=N4)C(=O)N)OC [BAY61-3606] + O=C(c1cc(Cc2n[nH]c(=O)c3ccccc23)ccc1F)N1CCN(C(=O)C2CC2)CC1 [Olaparib] (partner 8 µM)
Summary of the method: as §1

[3] = compound: COC1=C(C=C(C=C1)C2=CC3=NC=CN3C(=N2)NC4=C(C=CC=N4)C(=O)N)OC [BAY61-3606] + CS(=O)(=O)CCNCc1ccc(-c2ccc3ncnc(Nc4ccc(OCc5cccc(F)c5)c(Cl)c4)c3c2)o1 [Lapatinib] (partner 2 µM)
Summary of the method: as §1

[4] = compound: COC1=C(C=C(C=C1)C2=CC3=NC=CN3C(=N2)NC4=C(C=CC=N4)C(=O)N)OC [BAY61-3606] + Cc1cc(Nc2cc(N3CCN(C)CC3)nc(Sc3ccc(NC(=O)C4CC4)cc3)n2)n[nH]1 [Tozasertib] (partner 0.1 µM)
Summary of the method: as §1

Cell Line | relative viability ([1]; first compound 0.02 µM) | relative viability ([1]; first compound 0.06325 µM) | relative viability ([1]; first compound 0.2 µM) | relative viability ([1]; first compound 0.6325 µM) | relative viability ([1]; first compound 2 µM) | relative viability ([2]; first compound 0.06325 µM) | relative viability ([2]; first compound 0.2 µM) | relative viability ([2]; first compound 0.6325 µM) | relative viability ([2]; first compound 2 µM) | relative viability ([3]; first compound 0.02 µM) | relative viability ([3]; first compound 0.06325 µM) | relative viability ([3]; first compound 0.2 µM) | relative viability ([3]; first compound 0.6325 µM) | relative viability ([3]; first compound 2 µM) | relative viability ([4]; first compound 0.02 µM) | relative viability ([4]; first compound 0.06325 µM) | relative viability ([4]; first compound 0.2 µM) | relative viability ([4]; first compound 0.6325 µM) | relative viability ([4]; first compound 2 µM) | relative viability ([2]; first compound 0.02 µM)
PC-14 | 0.829 | 0.883 | 0.801 | 0.949 | 0.728 | 0.284 | 0.212 | 0.235 | 0.204 | 0.367 | 0.278 | 0.357 | 0.339 | 0.377 | 0.597 | 0.637 | 0.5 | 0.568 | 0.174 | –
COR-L23 | 1.06 | 1.12 | 0.934 | 0.962 | 0.714 | 0.356 | 0.411 | 0.353 | 0.269 | 0.872 | 1.08 | 0.826 | 1.04 | 0.834 | 0.203 | 0.133 | 0.148 | 0.14 | 0.117 | 0.343
COR-L 105 | 0.85 | 0.688 | 0.622 | 0.807 | 0.388 | 0.658 | 0.603 | 0.787 | 0.584 | 0.355 | 0.378 | 0.418 | 0.417 | 0.351 | 0.349 | 0.334 | 0.339 | 0.36 | 0.244 | 0.741
201T | 1.03 | 1.1 | 1.09 | 1.13 | 1.09 | 0.842 | 0.865 | 0.838 | 0.824 | 1.08 | 1.01 | 1.11 | 1.03 | 0.996 | 1 | 0.593 | 0.774 | 0.565 | 0.378 | 0.833
HCC-78 | 0.452 | 0.535 | 0.526 | 0.479 | 0.427 | 0.891 | 0.845 | 0.966 | 0.838 | 0.949 | 0.682 | 0.82 | 0.702 | 0.959 | 0.499 | 0.317 | 0.312 | 0.415 | 0.28 | 0.744
NCI-H727 | 0.844 | 0.822 | 0.872 | 0.856 | 0.829 | 0.643 | 0.752 | 0.68 | 0.627 | 0.701 | 0.742 | 0.82 | 0.983 | 0.753 | 0.799 | 0.593 | 0.521 | 0.656 | 0.442 | 0.586
H3255 | 0.932 | 0.611 | 0.724 | 0.822 | 0.725 | 0.486 | 0.511 | 0.582 | 0.516 | 0.257 | 0.203 | 0.274 | 0.249 | 0.229 | 0.6 | 0.64 | 0.54 | 0.649 | 0.701 | 0.545
NCI-H838 | 0.954 | 0.738 | 0.748 | 0.822 | 0.501 | 0.847 | 0.751 | 0.729 | 0.571 | 1.17 | 0.875 | 0.971 | 0.951 | 0.621 | 0.285 | 0.224 | 0.234 | 0.23 | 0.224 | 0.802
